Reference: patent US10975056B2 (GlaxoSmithKline Intellectual Property Development Limited, priority 2016, dated 2021)
Where a name gives a salt, the structure may show the parent alone. Read-outs that look alike come from different tables or passages of the source.

How the values were obtained:
[1] = test system: erythroid progenitor cells (EPCs); test: Fetal hemoglobin (HbF) ELISA in day 7 erythroid progenitor cells; assay type: cell-based, human; conditions: Homo sapiens, Erythroid progenitor cell;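 for EPC ELISA (pEC50 category): for fetal hemoglobin induction normalized to vehicle-treated cells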
Procedure, shortened: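 Read-out was OD450 from an HRP/TMB sandwich ELISA on lysates, normalized to DMSO-only control wells. Thawed day 7 EPCs from human marrow CD34+ cells had been treated for 5 days at 37° C with Compound A, 22 concentrations […].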

DNMT1 = DNMT1 (Homo sapiens, UniProt P26358); test: DNMT1 biochemical activity, breaklight assay and/or SPA assay; conditions: for IC50 / DNMT1 BioChemical (pIC50 category): binned activity in either the breaklight or the SPA assay
DNMT3B = DNMT3B (Homo sapiens (Human), UniProt Q9UBC3); test: DNMT3B breaklight assay; assay type: biochemical
[2] = HbF ELISA, day 7 EPCs, 5 days, read-out: EPC ELISA (pEC50 category) (converted)
[3] = read-out: DNMT1 BioChemical (pIC50 category) (converted)
[4] = read-out: DNMT3B Breaklight IC50
[5] = repeated experimental runs, read-out: average IC50, DNMT3B breaklight assay

DNMT1, sequence (P26358 whole entry, looked up): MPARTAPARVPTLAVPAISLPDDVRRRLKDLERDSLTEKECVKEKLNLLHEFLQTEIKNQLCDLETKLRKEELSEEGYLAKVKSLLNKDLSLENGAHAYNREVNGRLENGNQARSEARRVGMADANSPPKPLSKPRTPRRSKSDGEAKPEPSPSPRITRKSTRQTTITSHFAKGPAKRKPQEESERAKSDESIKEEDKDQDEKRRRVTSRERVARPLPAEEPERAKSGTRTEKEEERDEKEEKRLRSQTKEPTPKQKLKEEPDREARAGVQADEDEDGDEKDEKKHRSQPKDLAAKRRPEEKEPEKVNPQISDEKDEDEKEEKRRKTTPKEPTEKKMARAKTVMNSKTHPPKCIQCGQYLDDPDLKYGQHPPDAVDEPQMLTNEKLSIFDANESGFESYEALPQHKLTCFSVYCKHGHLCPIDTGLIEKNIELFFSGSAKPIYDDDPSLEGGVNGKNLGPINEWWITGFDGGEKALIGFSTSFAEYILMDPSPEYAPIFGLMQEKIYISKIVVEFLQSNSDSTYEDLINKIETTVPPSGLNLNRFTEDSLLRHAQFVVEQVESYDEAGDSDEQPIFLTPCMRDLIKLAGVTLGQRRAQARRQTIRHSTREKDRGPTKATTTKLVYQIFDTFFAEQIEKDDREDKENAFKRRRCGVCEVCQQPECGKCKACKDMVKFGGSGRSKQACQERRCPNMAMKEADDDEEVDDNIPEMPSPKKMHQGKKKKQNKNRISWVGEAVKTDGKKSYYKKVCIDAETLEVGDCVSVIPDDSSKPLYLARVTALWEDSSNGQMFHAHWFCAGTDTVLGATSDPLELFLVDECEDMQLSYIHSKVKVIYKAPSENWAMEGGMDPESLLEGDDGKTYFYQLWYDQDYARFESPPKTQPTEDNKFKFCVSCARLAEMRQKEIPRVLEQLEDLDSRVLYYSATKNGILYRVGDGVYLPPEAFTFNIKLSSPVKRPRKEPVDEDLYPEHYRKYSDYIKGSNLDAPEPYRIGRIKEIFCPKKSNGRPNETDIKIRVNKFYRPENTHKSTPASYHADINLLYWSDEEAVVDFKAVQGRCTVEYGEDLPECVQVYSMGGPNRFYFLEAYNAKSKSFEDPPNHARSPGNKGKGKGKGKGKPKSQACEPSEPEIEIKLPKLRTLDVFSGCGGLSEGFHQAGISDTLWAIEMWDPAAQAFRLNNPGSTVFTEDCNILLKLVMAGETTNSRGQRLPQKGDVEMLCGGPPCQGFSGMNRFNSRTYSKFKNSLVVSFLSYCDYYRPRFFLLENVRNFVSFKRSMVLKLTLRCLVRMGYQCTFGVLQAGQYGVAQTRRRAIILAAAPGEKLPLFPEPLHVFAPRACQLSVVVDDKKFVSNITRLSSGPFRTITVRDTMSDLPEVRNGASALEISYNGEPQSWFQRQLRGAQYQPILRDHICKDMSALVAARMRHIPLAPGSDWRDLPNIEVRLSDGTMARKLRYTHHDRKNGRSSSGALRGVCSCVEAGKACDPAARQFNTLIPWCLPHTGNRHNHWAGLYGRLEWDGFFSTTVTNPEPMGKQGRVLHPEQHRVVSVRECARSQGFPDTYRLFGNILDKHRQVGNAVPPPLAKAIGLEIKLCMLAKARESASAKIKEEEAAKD

Structure (SMILES) | EC50 [1, 2] [nM] | IC50 (DNMT1; [3]) [nM] | IC50 (DNMT3B; [4]) [nM] | IC50 (DNMT3B; [5]) [nM] | further results
CCc1c(C#N)c(SC(C(N)=O)c2ccccc2)nc(N(C)C)c1C#N (stereo not shown) [Compound A, 2-{[3,5-dicyano-6-(dimethylamino)-4-ethylpyridin-2-yl]sulfanyl}-2-phenylacetamide] |  |  |  |  | EC50 ([1]; day 7 EPCs, 5 days at 37° C, read-out: increase in HbF, average pEC50 (converted)): 316 nM
CCc1c(C#N)c(SC(C(N)=O)c2ccccc2)nc(N2CCNC(=O)CC2)c1C#N (stereo not shown) [Example 8, 2-{[3,5-dicyano-4-ethyl-6-(5-oxo-1,4-diazepan-1-yl)pyridin-2-yl]sulfanyl}-2-phenylacetamide] | 1000 to 31600 | 316 to 1000 | > 500000 | > 500000 | 
N#Cc1c(SC(C(N)=O)c2ccncc2)nc(N2CCOCC2)c(C#N)c1C1CC1 (stereo not shown) [Example 9, 2-((3,5-dicyano-4-cyclopropyl-6-morpholinopyridin-2-yl)thio)-2-(pyridin-4-yl)acetamide] | > 31600 | 316 to 1000 | > 500000 | > 500000 | 
CCc1c(C#N)c(SC(C(N)=O)c2ccccc2)nc(N2CCN(CC)CC2)c1C#N (stereo not shown) [Example 35, 2-((3,5-dicyano-4-ethyl-6-(4-ethylpiperazin-1-yl)pyridin-2-yl)thio)-2-phenylacetamide] | 1000 to 31600 | 316 to 1000 | > 500000 | > 500000 | 
CCc1c(C#N)c(SC(C(N)=O)c2ccccc2)nc(N2CCC23CCNCC3)c1C#N (stereo not shown) [Example 38, 2-((3,5-Dicyano-4-ethyl-6-(1,7-diazaspiro[3.5]nonan-1-yl)pyridin-2-yl)thio)-2-phenylacetamide trifluoroacetate] |  |  |  |  | EC50 ([1]; read-out: EPC ELISA (pEC50 category) (converted)): 316 to 1000 nM; IC50 (DNMT1; DNMT1 BioChemical (pIC50 category)): 316 to 1000 nM
CN1CCN(C2CCN(c3nc(SC(C(N)=O)c4ccccc4)c(C#N)c(C4CC4)c3C#N)CC2)CC1 (stereo not shown) [Example 40, 2-((3,5-Dicyano-4-cyclopropyl-6-(4-(4-methylpiperazin-1-yl)piperidin-1-yl)pyridin-2-yl)thio)-2-phenylacetamide] | < 316 |  |  |  | DNMT1 BioChemical (pIC50 category) (DNMT1): D (Category D: ≥6.5)
CCc1c(C#N)c(N[C@@H](C(N)=O)c2ccccc2)nc(N2CCCNCC2)c1C#N [Example 41, (R)-2-((3,5-dicyano-6-(1,4-diazepan-1-yl)-4-ethylpyridin-2-yl)amino)-2-phenylacetamide] | 1000 to 31600 | 316 to 1000 | > 500000 | > 500000 | 
CC(Sc1nc(N2CCCNCC2)c(C#N)c(C2CC2)c1C#N)C(N)=O (stereo not shown) [Example 46, 2-((3,5-dicyano-4-cyclopropyl-6-(1,4-diazepan-1-yl)pyridin-2-yl)thio)propanamide] | > 31600 | 316 to 1000 | > 500000 |  | 
CCc1c(C#N)c(SC(C(N)=O)c2ccccc2)nc(N2CCC(O)CC2)c1C#N (stereo not shown) [Example 48, 2-((3,5-Dicyano-4-ethyl-6-(4-hydroxypiperidin-1-yl)pyridin-2-yl)thio)-2-phenylacetamide] | 1000 to 31600 | 316 to 1000 | > 500000 |  | 
CCc1c(C#N)c(SC(C(N)=O)c2ccccc2)nc(N2CCNCC2)c1C#N (stereo not shown) [Example 55, 2-((3,5-Dicyano-4-ethyl-6-(piperazin-1-yl)pyridin-2-yl)thio)-2-phenylacetamide] | < 316 | 316 to 1000 | 272000 |  | 
CCc1c(C#N)c(SC(C(N)=O)c2ccccc2)nc(N2CCCN(C)CC2)c1C#N (stereo not shown) [Example 56, 2-((3,5-Dicyano-4-ethyl-6-(4-methyl-1,4-diazepan-1-yl)pyridin-2-yl)thio)-2-phenylacetamide] | < 316 |  | > 500000 | > 500000 | DNMT1 BioChemical (pIC50 category) (DNMT1): D (Category D: ≥6.5)
CCc1c(C#N)c(SC(C(N)=O)c2ccccc2)nc(N2CCOCC2)c1C#N (stereo not shown) [Example 57, 2-((3,5-Dicyano-4-ethyl-6-morpholinopyridin-2-yl)thio)-2-phenylacetamide] | 316 to 1000 | 316 to 1000 | > 500000 |  | 
N#Cc1c(SC(C(N)=O)c2ccccc2)nc(N2CCOC(CO)C2)c(C#N)c1C1CC1 (stereo not shown) [Example 63, 2-((3,5-Dicyano-4-cyclopropyl-6-(2-(hydroxymethyl)morpholino)pyridin-2-yl)thio)-2-phenylacetamide] | 316 to 1000 | 316 to 1000 |  |  | 
CN1CCN(CC2CCN(c3nc(SC(C(N)=O)c4ccccc4)c(C#N)c(C4CC4)c3C#N)CC2)CC1 (stereo not shown) [Example 125, 2-((3,5-Dicyano-4-cyclopropyl-6-(4-((4-methylpiperazin-1-yl)methyl)piperidin-1-yl)pyridin-2-yl)thio-2-phenylacetamide trifluoroacetate] | < 316 |  | 75000 |  | DNMT1 BioChemical (pIC50 category) (DNMT1): D (Category D: ≥6.5); average pIC50 against DNMT1 (DNMT1; breaklight assay and/or SPA assay, repeated experimental runs): > 6.5
